Reference: US20070059242A1, “METHODS TO IDENTIFY THERAPEUTIC AGENTS” (priority 2005, published 2007)
Where two headings read alike, the source gives them in different places.

How the values were obtained:
[1] = test system: neuronal cell lines; assay: Cytotoxicity towards neuronal cell lines (similar procedures); assay type: cell-based
[2] = Loss of extractable 5a from stored plasma; conditions: preliminary investigations
Procedure: Plasma samples were obtained from patients (n=8) who were scheduled to undergo carotid endarterectomy within 24 h. […] Control plasma samples were obtained from random patients (n=15) attending a general medical clinic and were analyzed 7 days after collection. In a typical procedure, plasma in EDTA (1 ml) was washed with dichloromethane (DCM, 3×1 mL). The combined organic fractions were evaporated in vacuo. The residue was dissolved in methanol (0.9 mL) and a solution of 2,4-dinitrophenyl hydrazine (100 μL, 0.01 M, Lancaster) and 1N HCl in ethanol was added. Nitrogen was bubbled through the solution for 5 min and then the solution was stirred for 2 h. The resultant solution was filtered through a 0.22 μm filter and the filtrate was analyzed by the HPLC assay vide supra.

[3] = test system: T-lymphocyte cell line (Jurkat E6.1); assay: LDH release cytotoxicity assay, Jurkat; assay type: cell-based; conditions: Homo sapiens; Jurkat E6.1; LDH release, 0-100 μM, 18 h
Procedure: Cytotoxicity assays. WI-L2 human B-lymphocyte line, HAAE-1 human abdominal aortic endothelial line, MH-S murine alveolar macrophage line, and J774A.1 murine tissue macrophage line were obtained from the ATCC. Human aortic endothelial cells (HAEC) and human vascular smooth muscle cells (VSMS) were obtained from Cambrex Bio Science. Jurkat E6-1T-lymphocytes were kindly provided by Dr. J. Kaye (The Scripps Research Institute). Cells were cultured in ATCC-recommended media with 10% fetal calf serum. Cells were incubated in a controlled atmosphere at 37° C., with 5 or 7% CO2. For lactate dehydrogenase (LDH) release assays, adherent cells were harvested either by addition of 0.05% trypsin/EDTA or by scraping. The cells obtained were seeded onto 96-well microtiter plates (25,000 cells/well) and allowed to recover for 24-48 h. […] Cytotoxicity was then determined by measuring lactate dehydrogenase (LDH) release from cells in culture. […] 100% Cytotoxicity was defined as the maximum amount of LDH released by dead cells as shown by trypan blue exclusion, or the highest amount of LDH detected upon lysis of cells by 0.9% Triton X-100. The IC50 values were determined by comparison of the raw duplicate data for concentration versus cytotoxicity (%) to non-linear regression analysis (Hill plot) using Graphpad v3.0 software for Macintosh. […]

[4] = test system: J774.1 macrophages; assay: Lipid-loading assay (foam cell formation); assay type: cell-based, murine; conditions: J774.1, 72 h, LDL 100 μg/mL with or without compound 20 μM
Procedure: Lipid-loading assay (foam cell formation). J774.1 macrophages were incubated in ATCC-recommended media containing 10% fetal bovine serum under a controlled atmosphere of 5 or 7% CO2 at 37° C., in 8-well chamber slides. […] At termination, cells were washed twice with PBS (pH 7.4). The cells were then fixed with 6% (v/v) paraformaldehyde in PBS for 30 minutes, rinsed with propylene glycol for 2 minutes and lipids were stained with 5 mg/ml Oil Red 0 for 8 minutes. The cells were counterstained with Harris' hematoxylin for 45 seconds, and background staining was removed with 6% paraformaldehyde followed by washing once in PBS and once in tap water. Cover slips were mounted onto the glass slides using glycerol and the slide preparations were examined by light microscopy. The number of lipid-laden cells was scored out of a total of at least 100 cells counted in a single field in each slide, and expressed as a percentage of total cells. Photographs were taken at 100× magnification.

[5] = test system: J774A.1 murine tissue macrophage line; assay: LDH release cytotoxicity assay, J774A.1; assay type: cell-based
Procedure: Cytotoxicity assays. WI-L2 human B-lymphocyte line, HAAE-1 human abdominal aortic endothelial line, MH-S murine alveolar macrophage line, and J774A.1 murine tissue macrophage line were obtained from the ATCC. Human aortic endothelial cells (HAEC) and human vascular smooth muscle cells (VSMS) were obtained from Cambrex Bio Science. Jurkat E6-1T-lymphocytes were kindly provided by Dr. J. Kaye (The Scripps Research Institute). Cells were cultured in ATCC-recommended media with 10% fetal calf serum. Cells were incubated in a controlled atmosphere at 37° C., with 5 or 7% CO2. For lactate dehydrogenase (LDH) release assays, adherent cells were harvested either by addition of 0.05% trypsin/EDTA or by scraping. The cells obtained were seeded onto 96-well microtiter plates (25,000 cells/well) and allowed to recover for 24-48 h. […] Cytotoxicity was then determined by measuring lactate dehydrogenase (LDH) release from cells in culture. […] 100% Cytotoxicity was defined as the maximum amount of LDH released by dead cells as shown by trypan blue exclusion, or the highest amount of LDH detected upon lysis of cells by 0.9% Triton X-100. The IC50 values were determined by comparison of the raw duplicate data for concentration versus cytotoxicity (%) to non-linear regression analysis (Hill plot) using Graphpad v3.0 software for Macintosh.

[6] = test system: J774A.1 macrophages; assay: Modified Boyden chamber migration (chemotaxis) assay; assay type: cell-based, murine; conditions: for recruitment (migration) of macrophages: 0-25 μM, 4 h
Procedure: Chemotaxis and invasion assays were performed using a modified Boyden chamber migration assay. Zwirner et al. (1998) Eur. J. Immunol. 28: 1570-77; Wilkinson (1988) Methods Enzymol. 162: 38-50. Assays were set up on MultiScreen-MIC plates (Millipore, Billerica, Mass., USA) with polyvinylpyrrolidone-free polycarbonate membranes (5 μm pore size). Cells (murine macrophage J774A.1) were washed and resuspended in serum-free DMEM containing 0.2% BSA at 1×10^6 cells/ml. Fifty microliters of cells were added to the upper wells and 150 μl of chemoattractant in DMEM/0.2% BSA were added to the lower wells of the microchamber. Incubation time was for 4 h at 37° C. in an 8% CO2 atmosphere. After swiping cells off the upper side of the membrane, cells on the lower side were visualized by either staining and phase contrast microscopy, or fluorescence. Cells that had adhered to the membrane were stained using a DiffQuik staining kit (Dade Behring, Newark, Del.). Each experiment was performed in triplicate and the numbers of migrating cells were counted in five fields at ×200. Cells harvested with PBS-EDTA for fluorescent labeling were washed two times with PBS, then resuspended in serum-free medium containing calcein AM (5 μM). Cells were incubated for 30 min (37° C., 5% CO2) with gentle intermittent mixing. Calcein-labeled cells were washed twice, and calcein fluorescence ([…]) was measured using a SPECTRAmax™ GEMINI dual-scanning microplate spectrofluorometer. Fluorescence measurements were compared to a standard curve, generated by dilution of cells in PBS/BSA in 100 μl, dispensed into 96-well plates. Fluorescence was quantified as described above.

[7] = molecular target: LDL / apoB-100 (Homo sapiens, UniProt P04114); assay: Circular dichroism of LDL secondary structure; conditions: LDL 100 μg/ml with compound 10 μM, PBS pH 7.4, 37° C.
Procedure: Circular dichroism. […] Spectra were recorded in the peptidic range (200-260 nm). To increase the signal-to-noise ratio, multiple spectra (three) were averaged for each measurement.

[8] = Aldolization of ketoaldehyde 4a with amino acids (1H NMR); assay type: physicochemical
Procedure: Aldolization of ketoaldehyde 4a with amino acids. […] To this solution was added 1 equivalent of either: a) L-proline, b) glycine, c) L-lysine hydrochloride or d) L-lysine ethyl ester dihydrochloride. At time points the samples were analyzed by ^1H NMR.

[9] = complexed with native LDL (100 μg/ml)

Sequence of LDL / apoB-100 (P04114 28-4563, species assumed): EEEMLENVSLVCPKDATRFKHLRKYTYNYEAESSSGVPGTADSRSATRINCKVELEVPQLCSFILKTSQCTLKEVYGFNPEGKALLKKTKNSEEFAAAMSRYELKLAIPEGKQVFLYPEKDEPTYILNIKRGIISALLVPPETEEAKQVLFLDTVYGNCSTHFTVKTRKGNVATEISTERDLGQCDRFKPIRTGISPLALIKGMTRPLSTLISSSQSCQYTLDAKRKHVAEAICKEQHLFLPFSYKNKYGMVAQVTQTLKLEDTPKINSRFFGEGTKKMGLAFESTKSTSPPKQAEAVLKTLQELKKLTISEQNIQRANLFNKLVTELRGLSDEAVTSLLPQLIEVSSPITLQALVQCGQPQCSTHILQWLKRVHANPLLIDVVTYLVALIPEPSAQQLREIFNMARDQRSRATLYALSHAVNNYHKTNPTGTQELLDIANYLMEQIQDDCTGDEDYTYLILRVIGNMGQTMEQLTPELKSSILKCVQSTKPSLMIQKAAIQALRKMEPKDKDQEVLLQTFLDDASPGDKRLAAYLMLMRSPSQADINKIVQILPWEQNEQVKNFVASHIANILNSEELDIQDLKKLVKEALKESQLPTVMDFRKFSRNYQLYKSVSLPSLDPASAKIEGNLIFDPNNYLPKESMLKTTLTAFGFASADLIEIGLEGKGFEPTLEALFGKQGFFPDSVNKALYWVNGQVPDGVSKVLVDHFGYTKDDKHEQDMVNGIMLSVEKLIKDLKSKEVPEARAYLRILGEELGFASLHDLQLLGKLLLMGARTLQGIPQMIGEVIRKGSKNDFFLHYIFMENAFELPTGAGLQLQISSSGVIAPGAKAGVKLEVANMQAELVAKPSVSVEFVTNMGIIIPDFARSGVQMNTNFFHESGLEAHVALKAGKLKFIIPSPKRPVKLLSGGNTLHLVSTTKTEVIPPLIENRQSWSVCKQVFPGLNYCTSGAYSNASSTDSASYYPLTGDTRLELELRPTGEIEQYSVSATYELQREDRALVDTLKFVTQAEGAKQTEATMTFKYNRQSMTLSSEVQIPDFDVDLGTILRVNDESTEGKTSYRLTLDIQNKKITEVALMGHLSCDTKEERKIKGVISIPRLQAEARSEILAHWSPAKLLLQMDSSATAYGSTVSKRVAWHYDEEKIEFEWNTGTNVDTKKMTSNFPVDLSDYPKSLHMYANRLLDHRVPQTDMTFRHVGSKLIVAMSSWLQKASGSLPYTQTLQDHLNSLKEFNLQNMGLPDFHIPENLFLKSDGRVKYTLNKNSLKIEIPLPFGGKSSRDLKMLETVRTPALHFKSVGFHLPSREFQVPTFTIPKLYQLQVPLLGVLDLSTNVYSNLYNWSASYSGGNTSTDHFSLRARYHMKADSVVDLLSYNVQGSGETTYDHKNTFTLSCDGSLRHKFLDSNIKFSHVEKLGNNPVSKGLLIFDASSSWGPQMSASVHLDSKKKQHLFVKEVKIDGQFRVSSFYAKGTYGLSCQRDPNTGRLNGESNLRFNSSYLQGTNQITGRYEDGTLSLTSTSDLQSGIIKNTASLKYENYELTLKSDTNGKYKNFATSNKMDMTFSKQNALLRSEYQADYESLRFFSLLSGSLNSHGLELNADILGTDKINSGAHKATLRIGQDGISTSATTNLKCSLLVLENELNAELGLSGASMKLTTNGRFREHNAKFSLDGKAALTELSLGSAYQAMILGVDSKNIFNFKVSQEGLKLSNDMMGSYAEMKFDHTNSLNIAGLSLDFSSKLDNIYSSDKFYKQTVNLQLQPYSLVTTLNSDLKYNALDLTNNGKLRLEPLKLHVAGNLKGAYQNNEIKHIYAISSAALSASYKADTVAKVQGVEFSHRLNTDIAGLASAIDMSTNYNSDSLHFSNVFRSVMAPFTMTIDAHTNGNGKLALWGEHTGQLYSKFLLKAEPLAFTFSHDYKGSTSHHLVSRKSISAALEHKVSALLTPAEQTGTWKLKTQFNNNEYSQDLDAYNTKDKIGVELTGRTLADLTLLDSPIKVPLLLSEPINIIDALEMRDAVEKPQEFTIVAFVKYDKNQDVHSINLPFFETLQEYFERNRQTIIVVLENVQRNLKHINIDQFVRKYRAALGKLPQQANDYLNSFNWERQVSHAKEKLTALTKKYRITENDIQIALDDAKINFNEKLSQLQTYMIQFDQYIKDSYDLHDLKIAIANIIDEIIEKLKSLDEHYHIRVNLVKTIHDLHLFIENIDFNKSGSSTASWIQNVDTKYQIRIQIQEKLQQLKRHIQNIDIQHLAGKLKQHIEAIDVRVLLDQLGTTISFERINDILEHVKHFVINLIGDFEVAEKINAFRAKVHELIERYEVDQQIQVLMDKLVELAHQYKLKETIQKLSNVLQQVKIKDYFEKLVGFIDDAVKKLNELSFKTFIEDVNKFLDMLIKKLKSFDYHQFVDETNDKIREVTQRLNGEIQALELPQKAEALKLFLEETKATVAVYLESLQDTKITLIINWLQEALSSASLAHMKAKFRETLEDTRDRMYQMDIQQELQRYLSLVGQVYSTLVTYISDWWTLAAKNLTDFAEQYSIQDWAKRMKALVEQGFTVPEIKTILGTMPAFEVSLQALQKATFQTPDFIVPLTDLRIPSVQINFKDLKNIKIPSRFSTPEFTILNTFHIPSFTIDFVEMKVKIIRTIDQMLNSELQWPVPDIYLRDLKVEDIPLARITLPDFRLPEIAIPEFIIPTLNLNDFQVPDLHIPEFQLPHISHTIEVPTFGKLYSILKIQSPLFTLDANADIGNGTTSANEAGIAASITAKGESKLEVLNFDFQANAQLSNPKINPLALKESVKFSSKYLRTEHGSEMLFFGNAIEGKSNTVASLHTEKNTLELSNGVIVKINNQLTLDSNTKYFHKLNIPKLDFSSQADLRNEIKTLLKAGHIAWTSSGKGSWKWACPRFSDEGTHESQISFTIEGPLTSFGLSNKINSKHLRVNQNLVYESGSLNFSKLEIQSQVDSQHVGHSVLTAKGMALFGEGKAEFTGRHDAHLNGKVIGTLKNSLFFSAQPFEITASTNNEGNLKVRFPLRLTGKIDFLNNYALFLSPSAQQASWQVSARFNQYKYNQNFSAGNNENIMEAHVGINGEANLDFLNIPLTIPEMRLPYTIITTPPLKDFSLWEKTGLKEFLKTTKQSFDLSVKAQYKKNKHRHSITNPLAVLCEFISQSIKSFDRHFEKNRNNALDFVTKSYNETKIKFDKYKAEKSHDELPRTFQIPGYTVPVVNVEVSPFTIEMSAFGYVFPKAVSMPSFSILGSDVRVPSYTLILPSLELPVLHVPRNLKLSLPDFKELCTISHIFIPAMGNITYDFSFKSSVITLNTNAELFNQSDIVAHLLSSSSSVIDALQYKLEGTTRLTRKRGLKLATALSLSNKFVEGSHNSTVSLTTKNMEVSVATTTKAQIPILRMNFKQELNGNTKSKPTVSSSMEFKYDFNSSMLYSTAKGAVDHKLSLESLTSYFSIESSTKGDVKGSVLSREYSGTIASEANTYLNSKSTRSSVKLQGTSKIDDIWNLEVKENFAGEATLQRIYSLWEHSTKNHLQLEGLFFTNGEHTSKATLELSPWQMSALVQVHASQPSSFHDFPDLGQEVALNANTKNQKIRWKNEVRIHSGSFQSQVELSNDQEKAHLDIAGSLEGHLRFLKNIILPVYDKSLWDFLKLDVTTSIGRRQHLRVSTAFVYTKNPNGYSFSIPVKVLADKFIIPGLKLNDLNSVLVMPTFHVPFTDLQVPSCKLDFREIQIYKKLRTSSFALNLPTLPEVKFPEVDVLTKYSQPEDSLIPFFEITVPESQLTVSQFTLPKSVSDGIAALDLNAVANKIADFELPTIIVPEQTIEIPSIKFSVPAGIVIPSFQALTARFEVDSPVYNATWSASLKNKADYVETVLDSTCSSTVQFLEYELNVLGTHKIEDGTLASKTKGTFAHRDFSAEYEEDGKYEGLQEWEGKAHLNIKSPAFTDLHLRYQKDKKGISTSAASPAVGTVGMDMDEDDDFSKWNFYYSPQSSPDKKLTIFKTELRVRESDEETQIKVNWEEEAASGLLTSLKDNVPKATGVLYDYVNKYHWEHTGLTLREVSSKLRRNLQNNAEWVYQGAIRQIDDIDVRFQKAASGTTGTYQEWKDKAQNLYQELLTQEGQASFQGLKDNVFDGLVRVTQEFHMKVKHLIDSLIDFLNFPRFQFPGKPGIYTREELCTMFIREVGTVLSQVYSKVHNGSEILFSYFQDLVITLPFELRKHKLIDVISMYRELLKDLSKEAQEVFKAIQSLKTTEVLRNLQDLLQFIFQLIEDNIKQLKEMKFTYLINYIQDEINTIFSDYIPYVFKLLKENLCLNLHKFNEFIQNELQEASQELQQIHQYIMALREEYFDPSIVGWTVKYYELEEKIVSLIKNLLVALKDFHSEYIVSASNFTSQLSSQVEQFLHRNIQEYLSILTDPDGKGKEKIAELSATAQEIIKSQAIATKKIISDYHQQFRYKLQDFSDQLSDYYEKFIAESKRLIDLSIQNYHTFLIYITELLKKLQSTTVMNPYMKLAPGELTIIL

For `CC(C)CCC[C@@H](C)[C@H]1CCC2C3C(CC[C@@]21C)[C@@]1(C)CC[C@H](O)C[C@@]1(O)[C@@H]3C=O` (stereo partly drawn) [5a, 3β-Hydroxy-5β-hydroxy-B-norcholestane-6β-carboxaldehyde], the “cytotoxic towards neuronal cell lines” value [1] was “cytotoxic”, the “decrease of amount that can be extracted from plasma” value [2] was “about 5 % per day” and the IC50 [3] was 12.6 ± 1.9 µM. The “lipid-loading of macrophages / foam cell formation” value [4] was “began lipid-loading”, the IC50 ([5]; Mus musculus, J774.A1, 18 h) was 26.1 ± 2.8 µM and the “recruitment (migration) of macrophages” value [6] was “stimulate dose-dependent recruitment of macrophages”. The migration of macrophages ([6]; co-incubated with BSA) was “macrophage migration still occurs”, the migration of macrophages [6, 9] was “no significant migration” and the “random coil of LDL” value [7] was 32±4%. For the same compound, the “α helical structure of LDL” value [7] was roughly 20±2%.

With `CC(C)CCC[C@@H](C)[C@H]1CCC2C(CC=O)C([C@@]3(C)CC[C@H](O)CC3=O)CC[C@@]21C` (stereo partly drawn) [4a, 3β-Hydroxy-5-oxo-5,6-secocholestan-6-al] the “aldolization of 4a” value ([8]; DMSO-d6 (800 μl) and D2O (80 μl) alone) was “no aldolization”, the “conversion of 4a into 5a” value ([8]; Gly, 24 h) was “complete conversion” and the “conversion of 4a into 5a” value ([8]; L-Lys(OEt).2HCl, 100 h) was 62%. The “conversion of 4a into 5a” value ([8]; L-Lys.HCl, 24 h) was “complete conversion”, the “conversion of 4a into 5a” value ([8]; L-Pro, 2 h) was “complete conversion” and the “cytotoxic towards neuronal cell lines” value [1] was “cytotoxic”. For the same compound, the “lipid-loading of macrophages / foam cell formation” value [4] was “began lipid-loading”, the IC50 ([5]; J774A.1, LDH release, 0-100 μM, 18 h, read-out: IC50) was 15.6 ± 2.1 µM and the “recruitment (migration) of macrophages” value [6] was “stimulate dose-dependent recruitment of macrophages”. For the same compound, the migration of macrophages ([6]; co-incubated with BSA) was “macrophage migration still occurs”, the migration of macrophages [6, 9] was “no significant migration” and the “random coil of LDL” value [7] was roughly 39±2%. The “α helical structure of LDL” value [7] was roughly 23±5%.
